Results published in patent US20110237528A1, “COMPOSITIONS AND METHODS COMPRISING IMIDAZOLE AND TRIAZOLE DERIVATIVES” (INSTITUTE FOR ONEWORLD HEALTH, priority 2008, published 2011).

Columns and labels:
[1] = target: T1, CFTR in the CHO-CFTR cell line (Homo sapiens, UniProt P13569); assay: CHO-CFTR assay (FLIPR assay, same conditions as T84 assay); type: cell-based; conditions: average of at least 2 runs unless marked n = 1
T1 construct: expressed in transfected cells; host or cells: CHO (CHO-CFTR cell line)

[2] = test system: cholera toxin (CTX)-induced net fluid secretion in small intestine loops; set-up: species or system mice (CD1 strain); conditions: mouse, in vivo

T1 sequence (P13569 whole entry): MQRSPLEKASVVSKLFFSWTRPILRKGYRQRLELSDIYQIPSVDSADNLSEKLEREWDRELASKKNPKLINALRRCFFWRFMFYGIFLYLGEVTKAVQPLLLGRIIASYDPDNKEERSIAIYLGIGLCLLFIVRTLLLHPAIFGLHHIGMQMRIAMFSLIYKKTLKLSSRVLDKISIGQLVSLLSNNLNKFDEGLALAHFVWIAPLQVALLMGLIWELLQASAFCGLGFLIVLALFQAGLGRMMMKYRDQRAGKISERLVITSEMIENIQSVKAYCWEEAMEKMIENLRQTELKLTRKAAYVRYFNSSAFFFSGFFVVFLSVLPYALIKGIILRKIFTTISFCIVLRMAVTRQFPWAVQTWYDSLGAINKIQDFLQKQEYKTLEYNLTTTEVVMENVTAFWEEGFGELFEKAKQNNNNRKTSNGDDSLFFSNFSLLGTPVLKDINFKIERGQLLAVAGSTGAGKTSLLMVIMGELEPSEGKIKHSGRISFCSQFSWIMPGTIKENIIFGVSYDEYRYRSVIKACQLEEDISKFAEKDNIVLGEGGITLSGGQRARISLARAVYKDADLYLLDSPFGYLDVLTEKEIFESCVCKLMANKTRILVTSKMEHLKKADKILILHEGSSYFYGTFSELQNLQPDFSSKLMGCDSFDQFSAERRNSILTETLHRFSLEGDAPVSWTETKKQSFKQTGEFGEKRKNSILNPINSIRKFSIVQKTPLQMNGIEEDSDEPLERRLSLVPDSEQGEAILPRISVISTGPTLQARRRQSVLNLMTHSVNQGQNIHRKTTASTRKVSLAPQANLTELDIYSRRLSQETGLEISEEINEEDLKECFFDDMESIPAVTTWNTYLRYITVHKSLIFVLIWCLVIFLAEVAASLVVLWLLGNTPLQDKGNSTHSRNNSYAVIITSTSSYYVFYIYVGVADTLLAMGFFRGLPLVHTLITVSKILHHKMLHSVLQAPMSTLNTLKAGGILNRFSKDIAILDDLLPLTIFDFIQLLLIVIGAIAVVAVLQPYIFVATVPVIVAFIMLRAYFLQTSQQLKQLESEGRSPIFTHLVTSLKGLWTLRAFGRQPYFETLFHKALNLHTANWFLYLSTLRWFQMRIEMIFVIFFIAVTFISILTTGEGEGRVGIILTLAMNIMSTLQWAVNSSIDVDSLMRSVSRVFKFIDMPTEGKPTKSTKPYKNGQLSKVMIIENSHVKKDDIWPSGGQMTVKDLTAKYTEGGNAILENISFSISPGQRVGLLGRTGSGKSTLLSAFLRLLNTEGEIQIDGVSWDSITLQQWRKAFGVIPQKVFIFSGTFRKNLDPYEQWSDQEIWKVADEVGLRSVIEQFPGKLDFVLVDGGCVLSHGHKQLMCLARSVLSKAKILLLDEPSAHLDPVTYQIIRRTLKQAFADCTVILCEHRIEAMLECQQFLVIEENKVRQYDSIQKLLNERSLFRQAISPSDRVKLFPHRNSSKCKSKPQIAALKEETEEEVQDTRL

Compound	IC50 [1] [µM]	% inhibition @ 100 μg dose (closed loop % inhibition) [2] [%]
O=C(c1ncn(-c2cc(Cl)c(O)c(Cl)c2)n1)N(Cc1ccccc1)Cc1cccc(OC(F)(F)F)c1 [Compound 84, N-benzyl-1-(3,5-dichloro-4-hydroxyphenyl)-N-(3-(trifluoromethoxy)benzyl)-1H-1,2,4-triazole-3-carboxamide]	≥ 50	
COCCOCCOCCOCCN(Cc1cccc(OC(F)(F)F)c1)C(=O)c1ncn(-c2cc(Cl)c(O)c(Cl)c2)n1 [Compound 115, 1-(3,5-dichloro-4-hydroxyphenyl)-N-(2,5,8,11-tetraoxatridecan-13-yl)-N-(3-(trifluoromethoxy)benzyl)-1H-1,2,4-triazole-3-carboxamide]	≥ 50	
COCCOCCOCCOCCON(Cc1ccc(Oc2ccccc2)cc1)C(=O)c1ncn(-c2cc(Cl)c(O)c(Cl)c2)n1 [Compound 122, N-(2,5,8,11-tetraoxatridecan-13-yloxy)-1-(3,5-dichloro-4-hydroxyphenyl)-N-(4-phenoxybenzyl)-1H-1,2,4-triazole-3-carboxamide]	≥ 50	
Oc1c(Cl)cc(-n2cnc(C(O)(c3cc(F)cc(F)c3)c3cc(F)cc(F)c3)n2)cc1Cl [Compound 52, 4-(3-(bis(3,5-difluorophenyl)(hydroxy)methyl)-1H-1,2,4-triazol-1-yl)-2,6-dichlorophenol]		55.3
C=CCN(Cc1ccc(C(C)C)cc1)C(=O)c1ncn(-c2cc(Cl)c(O)c(Cl)c2)n1 [Compound 101, N-allyl-1-(3,5-dichloro-4-hydroxyphenyl)-N-(4-isopropylbenzyl)-1H-1,2,4-triazole-3-carboxamide]	≥ 50	
CON(Cc1ccc(C(C)C)cc1)C(=O)c1ncn(-c2cc(Cl)c(O)c(Cl)c2)n1 [Compound 128, 1-(3,5-dichloro-4-hydroxyphenyl)-N-(4-isopropylbenzyl)-N-methoxy-1H-1,2,4-triazole-3-carboxamide]	≥ 50	
COCCOCCOCCOCCOCCOCCOCCOCCON(Cc1ccc(Oc2ccccc2)cc1)C(=O)c1ncn(-c2cc(Cl)c(O)c(Cl)c2)n1 [Compound 121, N-(2,5,8,11,14,17,20,23-octaoxapentacosan-25-yloxy)-1-(3,5-dichloro-4-hydroxyphenyl)-N-(4-phenoxybenzyl)-1H-1,2,4-triazole-3-carboxamide]	≥ 50	
O=C(NCc1ccc(Oc2ccc(F)c(C(F)(F)F)c2)cc1)c1ncn(-c2cc(Cl)c(O)c(Cl)c2)n1 [Compound 67, 1-(3,5-dichloro-4-hydroxyphenyl)-N-(4-(4-fluoro-3-(trifluoromethyl)phenoxy)benzyl)-1H-1,2,4-triazole-3-carboxamide]		88.2
CC(C)c1ccc(CC(NC(=O)c2ncn(-c3cc(Cl)c(O)c(Cl)c3)n2)C(=O)C(C)(C)C)cc1 (stereo not drawn) [Compound 134, 1-(3,5-dichloro-4-hydroxyphenyl)-N-(1-(4-isopropylphenyl)-4,4-dimethyl-3-oxopentan-2-yl)-1H-1,2,4-triazole-3-carboxamide]		71.7
COCCOCCOCCN(Cc1cccc(OC(F)(F)F)c1)C(=O)c1ncn(-c2cc(Cl)c(O)c(Cl)c2)n1 [Compound 113, 1-(3,5-dichloro-4-hydroxyphenyl)-N-(2-(2-(2-methoxyethoxy)ethoxy)ethyl)-N-(3-(trifluoromethoxy)benzyl)-1H-1,2,4-triazole-3-carboxamide]	≥ 50	
O=C(NCc1ccc(Oc2ccccc2)cc1)c1ncn(-c2cc(Cl)c(O)c(Cl)c2)n1 [Compound 49, 1-(3,5-dichloro-4-hydroxyphenyl)-N-(4-phenoxybenzyl)-1H-1,2,4-triazole-3-carboxamide]		42.3
COCCOCCOCCOCCOCCN(Cc1ccc(C(C)(C)C)cc1)C(=O)c1ncn(-c2cc(Cl)c(O)c(Cl)c2)n1 [Compound 118, N-(4-tert-butylbenzyl)-1-(3,5-dichloro-4-hydroxyphenyl)-N-(2,5,8,11,14-pentaoxahexadecan-16-yl)-1H-1,2,4-triazole-3-carboxamide]	≥ 50	
COCCOCCOCCOCCN(Cc1ccc(C(C)(C)C)cc1)C(=O)c1ncn(-c2cc(Cl)c(O)c(Cl)c2)n1 [Compound 120, N-(4-tert-butylbenzyl)-1-(3,5-dichloro-4-hydroxyphenyl)-N-(2,5,8,11-tetraoxatridecan-13-yl)-1H-1,2,4-triazole-3-carboxamide]	≥ 50	
O=C(NC(c1ccccc1)c1ccccc1)c1ncn(-c2cc(Cl)c(O)c(Cl)c2)n1 [Compound 2, N-benzhydryl-1-(3,5-dichloro-4-hydroxyphenyl)-1H-1,2,4-triazole-3-carboxamide]		42.9
Cc1noc(C)c1CCNC(=O)c1ncn(-c2cc(Cl)c(O)c(Cl)c2)n1 [Compound 74, 1-(3,5-dichloro-4-hydroxyphenyl)-N-(2-(3,5-dimethylisoxazol-4-yl)ethyl)-1H-1,2,4-triazole-3-carboxamide]	≥ 50	
CC(C)(C)c1ccc(CN(CCOCCOCCOCCOCCOCCOCc2ccccc2)C(=O)c2ncn(-c3cc(Cl)c(O)c(Cl)c3)n2)cc1 [Compound 116, N-(4-tert-butylbenzyl)-1-(3,5-dichloro-4-hydroxyphenyl)-N-(1-phenyl-2,5,8,11,14,17-hexaoxanonadecan-19-yl)-1H-1,2,4-triazole-3-carboxamide]	≥ 50	
O=C(c1ncn(-c2cc(Cl)c(O)c(Cl)c2)n1)N(Cc1ccccc1)Cc1cccc(C(F)(F)F)c1 [Compound 85, N-benzyl-1-(3,5-dichloro-4-hydroxyphenyl)-N-(3-(trifluoromethyl)benzyl)-1H-1,2,4-triazole-3-carboxamide]	≥ 50	
O=C(NCCC(c1ccccc1)c1ccccc1)c1ncn(-c2cc(Cl)c(O)c(Cl)c2)n1 [Compound 31, 1-(3,5-dichloro-4-hydroxyphenyl)-N-(3,3-diphenylpropyl)-1H-1,2,4-triazole-3-carboxamide]		45.1
COCCOCCOCCON(Cc1ccc(Oc2ccccc2)cc1)C(=O)c1ncn(-c2cc(Cl)c(O)c(Cl)c2)n1 [Compound 123, 1-(3,5-dichloro-4-hydroxyphenyl)-N-(2-(2-(2-methoxyethoxy)ethoxy)ethoxy)-N-(4-phenoxybenzyl)-1H-1,2,4-triazole-3-carboxamide]	≥ 50	
O=C(NCc1ccc(Cl)c(Cl)c1)c1ncn(-c2cc(Cl)c(O)c(Cl)c2)n1 [Compound 37, 1-(3,5-dichloro-4-hydroxyphenyl)-N-(3,4-dichlorobenzyl)-1H-1,2,4-triazole-3-carboxamide]		76.9
CC(C)(C)CCN(Cc1cccc(C(F)(F)F)c1)C(=O)c1ncn(-c2cc(Cl)c(O)c(Cl)c2)n1 [Compound 79, 1-(3,5-dichloro-4-hydroxyphenyl)-N-(3,3-dimethylbutyl)-N-(3-(trifluoromethyl)benzyl)-1H-1,2,4-triazole-3-carboxamide]	≥ 50	
CC(C)(C)CCN(Cc1cccc(OC(F)(F)F)c1)C(=O)c1ncn(-c2cc(Cl)c(O)c(Cl)c2)n1 [Compound 77, 1-(3,5-dichloro-4-hydroxyphenyl)-N-(3,3-dimethylbutyl)-N-(3-(trifluoromethoxy)benzyl)-1H-1,2,4-triazole-3-carboxamide]	≥ 50	
COCCOCCOCCOCCN(Cc1ccc(Cl)c(Cl)c1)C(=O)c1ncn(-c2cc(Cl)c(O)c(Cl)c2)n1 [Compound 111, 1-(3,5-dichloro-4-hydroxyphenyl)-N-(3,4-dichlorobenzyl)-N-(2,5,8,11-tetraoxatridecan-13-yl)-1H-1,2,4-triazole-3-carboxamide]	≥ 50	
COCCOCCOCCOCCOCCOCCOCCOCCN(Cc1ccc(C(C)(C)C)cc1)C(=O)c1ncn(-c2cc(Cl)c(O)c(Cl)c2)n1 [Compound 117, N-(4-tert-butylbenzyl)-1-(3,5-dichloro-4-hydroxyphenyl)-N-(2,5,8,11,14,17,20,23-octaoxapentacosan-25-yl)-1H-1,2,4-triazole-3-carboxamide]	≥ 50	
